Patent publication US9340600B2 (Indiana University Research and Technology Corporation, priority 2012, dated 2016)
*1 amine or outer side, *2 acyl side, *3 side chain or, on linkers, in order; H or OH if unused. Where a SMILES comes first, the peptide text is derived from it. Side-chain parts run from the residue outwards. [ ]: non-standard residue; d: D form. The star is where a group is joined. γGlu = O=C(O)[C@H](CCC(=O)[*:2])N[*:1]; Palmitoyl = CCCCCCCCCCCCCCCC(=O)*; hSer = N[C@@H](CCO)C(=O)O; Nva = CCC[C@H](N)C(=O)O; Aib = CC(C)(N)C(=O)O

Legend:
Assay type in all cases: cell-based
glucagon receptor = target: T1, glucagon receptor (Homo sapiens, UniProt P47871); test: cAMP induction, firefly luciferase-based reporter assay in HEK293 cells co-transfected with glucagon receptor; conditions: EC50 at Glucagon Receptor
T1 construct: expressed in transfected cells; host or cells: HEK293
Source text: (§1) This example describes an exemplary method of testing the biological activity of the peptides of the present disclosures, which method involves assaying cAMP synthesis.

GLP-1 receptor = target: T2, GLP-1 receptor (Homo sapiens, UniProt P43220); test: cAMP induction, firefly luciferase-based reporter assay in HEK293 cells co-transfected with GLP-1 receptor; conditions: EC50 at GLP-1 Receptor
T2 construct: expressed in transfected cells; host or cells: HEK293
Source text: as §1

GIP receptor = target: T3, GIP receptor (Homo sapiens, UniProt P48546); test: cAMP induction, firefly luciferase-based reporter assay in HEK293 cells co-transfected with GIP receptor; conditions: EC50 at GIP Receptor
T3 construct: expressed in transfected cells; host or cells: HEK293
T3 sequence (P48546 22-466): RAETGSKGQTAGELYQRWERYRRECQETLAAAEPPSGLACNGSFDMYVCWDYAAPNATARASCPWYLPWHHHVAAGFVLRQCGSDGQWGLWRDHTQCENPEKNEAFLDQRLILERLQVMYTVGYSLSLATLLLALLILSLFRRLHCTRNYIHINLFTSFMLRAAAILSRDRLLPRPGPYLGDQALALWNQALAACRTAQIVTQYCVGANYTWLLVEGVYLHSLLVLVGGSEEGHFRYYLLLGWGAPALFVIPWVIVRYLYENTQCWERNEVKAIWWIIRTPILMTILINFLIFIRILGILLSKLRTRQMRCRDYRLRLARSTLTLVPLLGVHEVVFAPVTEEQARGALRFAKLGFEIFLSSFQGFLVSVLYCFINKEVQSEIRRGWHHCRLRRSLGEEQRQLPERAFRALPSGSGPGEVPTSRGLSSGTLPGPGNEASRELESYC
Source text: as §1

[1] = Table 4, analogs of SEQ ID NO: 43 varying at position 3
[2] = Table 5, analogs of SEQ ID NO: 10

T1 sequence (P47871 26-477): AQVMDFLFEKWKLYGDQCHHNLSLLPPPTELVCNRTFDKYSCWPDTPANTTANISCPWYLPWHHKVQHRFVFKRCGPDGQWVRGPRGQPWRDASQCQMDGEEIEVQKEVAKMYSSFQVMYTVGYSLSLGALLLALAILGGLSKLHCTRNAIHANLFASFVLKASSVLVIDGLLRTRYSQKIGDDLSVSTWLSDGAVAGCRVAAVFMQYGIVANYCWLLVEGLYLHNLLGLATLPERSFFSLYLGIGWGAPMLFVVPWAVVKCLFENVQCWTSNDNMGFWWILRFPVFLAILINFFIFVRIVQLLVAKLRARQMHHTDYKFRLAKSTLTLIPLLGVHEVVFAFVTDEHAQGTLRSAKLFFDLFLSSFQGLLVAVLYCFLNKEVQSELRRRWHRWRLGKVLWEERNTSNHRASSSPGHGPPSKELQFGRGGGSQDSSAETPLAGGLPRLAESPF
T2 sequence (P43220 24-463): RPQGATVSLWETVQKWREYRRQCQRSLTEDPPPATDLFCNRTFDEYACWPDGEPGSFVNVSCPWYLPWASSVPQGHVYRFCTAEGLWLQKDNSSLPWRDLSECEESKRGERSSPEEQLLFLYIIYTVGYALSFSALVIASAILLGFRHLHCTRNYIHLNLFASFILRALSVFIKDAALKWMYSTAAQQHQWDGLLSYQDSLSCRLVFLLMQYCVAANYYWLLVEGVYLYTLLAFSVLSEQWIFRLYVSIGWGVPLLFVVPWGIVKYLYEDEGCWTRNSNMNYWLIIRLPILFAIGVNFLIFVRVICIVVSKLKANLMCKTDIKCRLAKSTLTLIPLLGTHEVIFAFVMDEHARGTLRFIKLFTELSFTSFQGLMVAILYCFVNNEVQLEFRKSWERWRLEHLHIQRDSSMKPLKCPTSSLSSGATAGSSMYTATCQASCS

CCCCCCCCCCCCCCCC(=O)N[C@@H](CCC(=O)NCCCC[C@H](NC(=O)[C@H](CC(=O)O)NC(=O)[C@H](CO)NC(=O)[C@@H](NC(=O)[C@H](Cc1ccccc1)NC(=O)[C@@H](NC(=O)CNC(=O)[C@@H](NC(=O)C(C)(C)NC(=O)[C@@H](N)Cc1c[nH]cn1)C(C)C)[C@@H](C)O)[C@@H](C)O)C(=O)N[C@@H](CO)C(=O)N[C@@H](CCCCN)C(=O)N[C@@H](Cc1ccc(O)cc1)C(=O)N[C@@H](CC(C)C)C(=O)N[C@@H](CC(=O)O)C(=O)N[C@@H](CCC(=O)O)C(=O)N[C@@H](CCCNC(=N)N)C(=O)N[C@@H](C)C(=O)N[C@@H](C)C(=O)N[C@@H](CCC(N)=O)C(=O)N[C@@H](CC(=O)O)C(=O)N[C@@H](Cc1ccccc1)C(=O)N[C@H](C(=O)N[C@@H](CCC(N)=O)C(=O)N[C@@H](Cc1c[nH]c2ccccc12)C(=O)N[C@@H](CC(C)C)C(=O)N[C@@H](CC(C)C)C(=O)N[C@@H](CCC(=O)O)C(=O)NCC(=O)NCC(=O)N1CCC[C@H]1C(=O)N[C@@H](CO)C(=O)N[C@@H](CO)C(=O)NCC(=O)N[C@@H](C)C(=O)N1CCC[C@H]1C(=O)N1CCC[C@H]1C(=O)N1CCC[C@H]1C(=O)N[C@@H](CO)C(N)=O)C(C)C)C(=O)O [compound 45] (H-H[Aib]VGTFTSDK([γGlu-Palmitoyl])SKYLDERAAQDFVQWLLEGGPSSGAPPPS-NH2)
EC50 (glucagon receptor; [1]): 26 pM
EC50 (GLP-1 receptor; [1]): 6 pM
EC50 (GIP receptor; [1]): 5 pM

CCCCCCCCCCCCCCCC(=O)N[C@@H](CCC(=O)NCCCC[C@H](NC(=O)[C@H](CC(=O)O)NC(=O)[C@H](CO)NC(=O)[C@@H](NC(=O)[C@H](Cc1ccccc1)NC(=O)[C@@H](NC(=O)CNC(=O)[C@H](CC[S+](C)[O-])NC(=O)C(C)(C)NC(=O)[C@@H](N)Cc1c[nH]cn1)[C@@H](C)O)[C@@H](C)O)C(=O)N[C@@H](CO)C(=O)N[C@@H](CCCCN)C(=O)N[C@@H](Cc1ccc(O)cc1)C(=O)N[C@@H](CC(C)C)C(=O)N[C@@H](CC(=O)O)C(=O)N[C@@H](CCC(=O)O)C(=O)N[C@@H](CCCNC(=N)N)C(=O)N[C@@H](C)C(=O)N[C@@H](C)C(=O)N[C@@H](CCC(N)=O)C(=O)N[C@@H](CC(=O)O)C(=O)N[C@@H](Cc1ccccc1)C(=O)N[C@H](C(=O)N[C@@H](CCC(N)=O)C(=O)N[C@@H](Cc1c[nH]c2ccccc12)C(=O)N[C@@H](CC(C)C)C(=O)N[C@@H](CC(C)C)C(=O)N[C@@H](CCC(=O)O)C(=O)NCC(=O)NCC(=O)N1CCC[C@H]1C(=O)N[C@@H](CO)C(=O)N[C@@H](CO)C(=O)NCC(=O)N[C@@H](C)C(=O)N1CCC[C@H]1C(=O)N1CCC[C@H]1C(=O)N1CCC[C@H]1C(=O)N[C@@H](CO)C(N)=O)C(C)C)C(=O)O (stereo partly drawn) [compound 46]
EC50 (glucagon receptor; [1]): 89 pM
EC50 (GLP-1 receptor; [1]): 3 pM
EC50 (GIP receptor; [1]): 18 pM

CCCCCCCCCCCCCCCC(=O)N[C@@H](CCC(=O)NCCCC[C@H](NC(=O)[C@H](CC(=O)O)NC(=O)[C@H](CO)NC(=O)[C@@H](NC(=O)[C@H](Cc1ccccc1)NC(=O)[C@@H](NC(=O)CNC(=O)[C@H](CCC)NC(=O)C(C)(C)NC(=O)[C@@H](N)Cc1c[nH]cn1)[C@@H](C)O)[C@@H](C)O)C(=O)N[C@@H](CO)C(=O)N[C@@H](CCCCN)C(=O)N[C@@H](Cc1ccc(O)cc1)C(=O)N[C@@H](CC(C)C)C(=O)N[C@@H](CC(=O)O)C(=O)N[C@@H](CCC(=O)O)C(=O)N[C@@H](CCCNC(=N)N)C(=O)N[C@@H](C)C(=O)N[C@@H](C)C(=O)N[C@@H](CCC(N)=O)C(=O)N[C@@H](CC(=O)O)C(=O)N[C@@H](Cc1ccccc1)C(=O)N[C@H](C(=O)N[C@@H](CCC(N)=O)C(=O)N[C@@H](Cc1c[nH]c2ccccc12)C(=O)N[C@@H](CC(C)C)C(=O)N[C@@H](CC(C)C)C(=O)N[C@@H](CCC(=O)O)C(=O)NCC(=O)NCC(=O)N1CCC[C@H]1C(=O)N[C@@H](CO)C(=O)N[C@@H](CO)C(=O)NCC(=O)N[C@@H](C)C(=O)N1CCC[C@H]1C(=O)N1CCC[C@H]1C(=O)N1CCC[C@H]1C(=O)N[C@@H](CO)C(N)=O)C(C)C)C(=O)O [compound 47] (H-H[Aib][Nva]GTFTSDK([γGlu-Palmitoyl])SKYLDERAAQDFVQWLLEGGPSSGAPPPS-NH2)
EC50 (glucagon receptor; [1]): 25 pM
EC50 (GLP-1 receptor; [1]): 3 pM
EC50 (GIP receptor; [1]): 2 pM

CCCCCCCCCCCCCCCC(=O)N[C@@H](CCC(=O)NCCCC[C@H](NC(=O)[C@H](CC(=O)O)NC(=O)[C@H](CO)NC(=O)[C@@H](NC(=O)[C@H](Cc1ccccc1)NC(=O)[C@@H](NC(=O)CNC(=O)[C@H](CCO)NC(=O)C(C)(C)NC(=O)[C@@H](N)Cc1c[nH]cn1)[C@@H](C)O)[C@@H](C)O)C(=O)N[C@@H](CO)C(=O)N[C@@H](CCCCN)C(=O)N[C@@H](Cc1ccc(O)cc1)C(=O)N[C@@H](CC(C)C)C(=O)N[C@@H](CC(=O)O)C(=O)N[C@@H](CCC(=O)O)C(=O)N[C@@H](CCCNC(=N)N)C(=O)N[C@@H](C)C(=O)N[C@@H](C)C(=O)N[C@@H](CCC(N)=O)C(=O)N[C@@H](CC(=O)O)C(=O)N[C@@H](Cc1ccccc1)C(=O)N[C@H](C(=O)N[C@@H](CCC(N)=O)C(=O)N[C@@H](Cc1c[nH]c2ccccc12)C(=O)N[C@@H](CC(C)C)C(=O)N[C@@H](CC(C)C)C(=O)N[C@@H](CCC(=O)O)C(=O)NCC(=O)NCC(=O)N1CCC[C@H]1C(=O)N[C@@H](CO)C(=O)N[C@@H](CO)C(=O)NCC(=O)N[C@@H](C)C(=O)N1CCC[C@H]1C(=O)N1CCC[C@H]1C(=O)N1CCC[C@H]1C(=O)N[C@@H](CO)C(N)=O)C(C)C)C(=O)O [compound 48] (H-H[Aib][hSer]GTFTSDK([γGlu-Palmitoyl])SKYLDERAAQDFVQWLLEGGPSSGAPPPS-NH2)
EC50 (glucagon receptor; [1]): 16 pM
EC50 (GLP-1 receptor; [1]): 3 pM
EC50 (GIP receptor; [1]): 4 pM

CCCCCCCCCCCCCCCC(=O)N[C@@H](CCC(=O)NCCCC[C@H](NC(=O)[C@H](CC(=O)O)NC(=O)[C@H](CO)NC(=O)[C@@H](NC(=O)[C@H](Cc1ccccc1)NC(=O)[C@@H](NC(=O)CNC(=O)[C@H](CCC(N)=O)NC(=O)C(C)(C)NC(=O)[C@@H](N)Cc1c[nH]cn1)[C@@H](C)O)[C@@H](C)O)C(=O)N[C@@H](CO)C(=O)N[C@@H](CCCCN)C(=O)N[C@@H](Cc1ccc(O)cc1)C(=O)N[C@@H](CC(C)C)C(=O)N[C@@H](CC(=O)O)C(=O)N[C@@H](CCC(=O)O)C(=O)N[C@@H](CCCNC(=N)N)C(=O)N[C@@H](C)C(=O)N[C@@H](C)C(=O)N[C@@H](CCC(N)=O)C(=O)N[C@@H](CC(=O)O)C(=O)N[C@@H](Cc1ccccc1)C(=O)N[C@H](C(=O)N[C@@H](CCC(N)=O)C(=O)N[C@@H](Cc1c[nH]c2ccccc12)C(=O)N[C@@H](CC(C)C)C(=O)N[C@@H](CC(C)C)C(=O)N[C@@H](CC(=O)O)C(=O)N[C@H](C(=O)NCC(=O)N1CCC[C@H]1C(=O)N[C@@H](CO)C(=O)N[C@@H](CO)C(=O)NCC(=O)N[C@@H](C)C(=O)N1CCC[C@H]1C(=O)N1CCC[C@H]1C(=O)N1CCC[C@H]1C(=O)N[C@@H](CO)C(N)=O)C(C)C)C(C)C)C(=O)O [compound 63] (H-H[Aib]QGTFTSDK([γGlu-Palmitoyl])SKYLDERAAQDFVQWLLDVGPSSGAPPPS-NH2; N-terminus assumed)
EC50 (glucagon receptor; [2]): 4 pM
EC50 (GLP-1 receptor; [2]): 3 pM
EC50 (GIP receptor; [2]): 55 pM

CCCCCCCCCCCCCCCC(=O)N[C@@H](CCC(=O)NCCCC[C@H](NC(=O)[C@H](CC(=O)O)NC(=O)[C@H](CO)NC(=O)[C@@H](NC(=O)[C@H](Cc1ccccc1)NC(=O)[C@@H](NC(=O)CNC(=O)[C@H](CCC(N)=O)NC(=O)C(C)(C)NC(=O)[C@@H](N)Cc1c[nH]cn1)[C@@H](C)O)[C@@H](C)O)C(=O)N[C@@H](CO)C(=O)N[C@@H](CCCCN)C(=O)N[C@@H](Cc1ccc(O)cc1)C(=O)N[C@@H](CC(C)C)C(=O)N[C@@H](CC(=O)O)C(=O)N[C@@H](CCC(=O)O)C(=O)N[C@@H](CCCNC(=N)N)C(=O)N[C@@H](C)C(=O)N[C@@H](C)C(=O)N[C@@H](CCC(N)=O)C(=O)N[C@@H](CC(=O)O)C(=O)N[C@@H](Cc1ccccc1)C(=O)N[C@H](C(=O)N[C@@H](CCC(N)=O)C(=O)N[C@@H](Cc1c[nH]c2ccccc12)C(=O)N[C@@H](CC(C)C)C(=O)N[C@@H](CC(C)C)C(=O)N[C@@H](CC(=O)O)C(=O)N[C@@H](C)C(=O)NCC(=O)N1CCC[C@H]1C(=O)N[C@@H](CO)C(=O)N[C@@H](CO)C(=O)NCC(=O)N[C@@H](C)C(=O)N1CCC[C@H]1C(=O)N1CCC[C@H]1C(=O)N1CCC[C@H]1C(=O)N[C@@H](CO)C(N)=O)C(C)C)C(=O)O [compound 64] (H-H[Aib]QGTFTSDK([γGlu-Palmitoyl])SKYLDERAAQDFVQWLLDAGPSSGAPPPS-NH2)
EC50 (glucagon receptor; [2]): 2 pM
EC50 (GLP-1 receptor; [2]): 3 pM
EC50 (GIP receptor; [2]): 19 pM
